pIC50: −log10 of the molar value.
What follows are compounds tested on PMA-differentiated THP-1 cells (assay: IL-1β production in PMA-differentiated THP-1 cells stimulated with gramicidin (hTHP-1 assay containing 2% fetal bovine serum; Procedures 1 and 2)). Conditions: Homo sapiens, THP-1, Table B1; 2% fetal bovine serum; class symbols; read-out: Average IC50 of compounds in hTHP-1 assay: hTHP-1 IC50.
Format: cell-based, human
Procedure, shortened: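 Human monocytic THP-1 cells, matured overnight with PMA at 20 ng/ml, are seeded in low-serum (2% FBS) RPMI. Test compounds, at final concentrations from 100 down to 0.0017 μM, precede gramicidin (5 μM, 2 h) by one hour. Released IL-1β is then determined by HTRF.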

pIC50	SMILES
5.30 to 6.00	NS(=O)(=NC(=O)Nc1c2c(nc3c1CCC31CC1)CCC2)c1ccn(C(F)F)n1 (stereo not shown) [Compound 180, 1-(difluoromethyl)-N′-((1′,5′,6′,7′-tetrahydro-2′H-spiro[cyclopropane-1,3′-dicyclopenta[b,e]pyridin]-8′-yl)carbamoyl)-1H-pyrazole-3-sulfonimidamide]
4.52 to 5.30	CC(C)(O)c1sc(S(N)(=O)=NC(=O)Nc2c3c(nc4c2CCC4)CCC3)cc1F (stereo not shown) [Compound 177, 4-fluoro-N′-((1,2,3,5,6,7-hexahydrodicyclopenta[b,e]pyridin-8-yl)carbamoyl)-5-(2-hydroxypropan-2-yl)thiophene-2-sulfonimidamide]
6.00 to 6.70	CC(C)n1ccc(S(N)(=O)=NC(=O)Nc2c3c(nc4c2CCC42CC2)CCC3)n1 (stereo not shown) [Compound 172, 1-isopropyl-N′-((1′,5′,6′,7′-tetrahydro-2′H-spiro[cyclopropane-1,3′-dicyclopenta[b,e]pyridin]-8′-yl)carbamoyl)-1H-pyrazole-3-sulfonimidamide]
5.30 to 6.00	CN(C)Cc1ccc(S(N)(=O)=NC(=O)Nc2c3c(nc4c2CCC4)CCC3)cc1 (single isomer, unassigned) [Compound 130b, (R) or (S)-4-((dimethylamino)methyl)-N′-((1,2,3,5,6,7-hexahydro-dicyclopenta[b,e]pyridin-8-yl)carbamoyl)benzene-sulfonamidamide]

Same assay, conditions: Homo sapiens, THP-1, Table B1; 2% fetal bovine serum; numeric bounds; read-out: Average IC50 of compounds in hTHP-1 assay: hTHP-1 IC50

pIC50	SMILES
< 4.52	CCc1c(-c2ccccc2)nc2c(c1NC(=O)N=S(N)(=O)c1cnc(C(C)(C)O)s1)CCC2 (stereo not shown) [Compound 144, N′-((3-ethyl-2-phenyl-6,7-dihydro-5H-cyclopenta[b]pyridin-4-yl)carbamoyl)-2-(2-hydroxypropan-2-yl)thiazole-5-sulfonimidamide]

Same assay, conditions: Homo sapiens, THP-1, Table B2; 2% fetal bovine serum; class symbols; read-out: hTHP-1 IC50

pIC50	SMILES
4.52 to 5.30	Cc1c(C(F)(F)F)nc2c(c1NC(=O)N=[S@](N)(=O)c1cnc(C(C)(C)O)s1)CC[C@H]2C [Compound 608b]
5.30 to 6.00	Cc1c(C2CCC2)nc2c(c1NC(=O)N=S(N)(=O)c1cc(C(C)(C)O)cs1)CCC2 (single isomer, unassigned) [Compound 658b, (R) or (S)-N′-((2-cyclobutyl-3-methyl-6,7-dihydro-5H-cyclopenta[b]pyridin-4-yl)carbamoyl)-4-(2-hydroxypropan-2-yl)thiophene-2-sulfonimidamide]

Continued, compound first:

SMILES	pIC50
Cc1c(C2CC2)nc2c(c1NC(=O)N=S(N)(=O)c1ccn(C(F)F)n1)CCC2 (stereo not shown) [Compound 676, N′-((2-cyclopropyl-3-methyl-6,7-dihydro-5H-cyclopenta[b]pyridin-4-yl)carbamoyl)-1-(difluoromethyl)-1H-pyrazole-3-sulfonimidamide]	5.30 to 6.00
Cc1c(C2(C)CC2)nc2c(c1NC(=O)N=S(N)(=O)c1cnc(C(C)(C)O)s1)CCC2 (stereo not shown) [Compound 641, 2-(2-Hydroxypropan-2-yl)-N′-((3-methyl-2-(1-methylcyclopropyl)-6,7-dihydro-5H-cyclopenta[b]pyridin-4-yl)carbamoyl)thiazole-5-sulfonimidamide]	4.52 to 5.30
CC(C)(O)c1sc(S(N)(=O)=NC(=O)Nc2c3c(nc4c2CCC4)CCC3)cc1Cl (stereo not shown) [Compound 688, 4-Chloro-N′-((1,2,3,5,6,7-hexahydrodicyclopenta[b, e]pyridin-8-yl)carbamoyl)-5-(2-hydroxypropan-2-yl)thiophene-2-sulfonimidamide]	5.30 to 6.00
CCc1c(C(F)(F)F)nc2c(c1NC(=O)N=S(N)(=O)c1sc(C(C)(C)O)cc1F)CCC2 (stereo not shown) [Compound 611, N′-((3-ethyl-2-(trifluoromethyl)-6,7-dihydro-5H-cyclopenta[b]pyridin-4-yl)carbamoyl)-3-fluoro-5-(2-hydroxypropan-2-yl)thiophene-2-sulfonimidamide]	6.00 to 6.70

Same assay, conditions: Homo sapiens, THP-1, Table B2; 2% fetal bovine serum; numeric bounds; read-out: hTHP-1 IC50

pIC50	SMILES
< 4.52	CC(C)(O)c1cc(F)c([S@@](N)(=O)=NC(=O)Nc2cc(CC(F)(F)F)nc3c2CCC3)s1 [Compound 602a]

Same assay, conditions: Homo sapiens, THP-1, Table B3; hTHP-1 assay, 2% fetal bovine serum; class symbols; read-out: IC50

pIC50	SMILES
6.00 to 6.70	CC(C)(O)c1cc(F)c(S(N)(=O)=NC(=O)Nc2c3c(nc(C(F)(F)F)c2C2CC2)CCC3)s1 (stereo not shown) [Example 610]

Same assay, conditions: Homo sapiens, THP-1, Table B4; 2% fetal bovine serum; class symbols; read-out: hTHP-1 IC50

pIC50	SMILES
6.70 to 7.40	C[C@@H]1CCc2c1nc1c(c2NC(=O)N=S(N)(=O)c2cnc([C@](C)(O)CO)s2)CCC1 (single isomer, unassigned) [Example 731]
6.00 to 6.70	C[C@@H]1CCc2c1nc1c(c2NC(=O)N=S(N)(=O)c2cnc([C@@](C)(O)CO)s2)CCC1 (single isomer, unassigned) [Example 730]
5.30 to 6.00	Cc1c(C(F)(F)F)nc2c(c1NC(=O)N=S(N)(=O)c1nn(-c3ccccc3)cc1F)CCC2 (stereo not shown) [Example 749, 4-Fluoro-N′-((3-methyl-2-(trifluoromethyl)-6,7-dihydro-5H-cyclopenta[b]pyridin-4-yl)carbamoyl)-1-phenyl-1H-pyrazole-3-sulfonimidamide]

Same assay, conditions: Table B1; 2% fetal bovine serum; class symbols; read-out: Average IC50 of compounds in hTHP-1 assay: hTHP-1 IC50

pIC50	SMILES
6.70 to 7.40	CC1CCc2c1nc1c(c2NC(=O)N=S(N)(=O)c2ncc(C(C)(C)O)s2)CCC1 (stereo not shown) [Compound 140, 5-(2-hydroxypropan-2-yl)-N′-((3-methyl-1,2,3,5,6,7-hexahydrodicyclopenta[b,e]pyridin-8-yl)carbamoyl)thiazole-2-sulfonimidamide]
6.70 to 7.40	Cc1c(C2CC2)nc2c(c1NC(=O)N=S(N)(=O)c1sc(C(C)(C)O)cc1F)CCC2 (single isomer, unassigned) [Compound 174b, (S) or (R)-N′-((2-cyclopropyl-3-methyl-6,7-dihydro-5H-cyclopenta[b]pyridin-4-yl)carbamoyl)-3-fluoro-5-(2-hydroxypropan-2-yl)thiophene-2-sulfonimidamide]
4.52 to 5.30	Cc1sc(S(N)(=O)=NC(=O)Nc2c3c(nc4c2CCC4)CCC3)cc1C(C)(C)O (single isomer, unassigned) [Compound 107b, (S) or (R)-N′-((1,2,3,5,6,7-hexahydrodicyclo-penta[b,e]pyridin-8-yl)carbamoyl)-4-(2-hydroxypropan-2-yl)-5-methylthiophene-2-sulfonimidamide]
5.30 to 6.00	CC1CCc2c1nc1c(c2NC(=O)N=S(N)(=O)c2cc(C(C)(C)O)cs2)CCC1 (single isomer, unassigned) [Compound 141a, (S,R/S) or (R,R/S)-4-(2-hydroxypropan-2-yl)-N′-((3-methyl-1,2,3,5,6,7-hexahydro-dicyclopenta[b,e]pyridin-8-yl)carbamoyl)thiophene-2-sulfonimidamide]
4.52 to 5.30	CC(C)c1ncc(F)c(C(C)C)c1NC(=O)N=S(N)(=O)c1nc(C(C)(C)O)cs1 (single isomer, unassigned) [Compound 163b, (S) or (R)-N′-((5-fluoro-2,4-diisopropylpyridin-3-yl)carbamoyl)-4-(2-hydroxypropan-2-yl)thiazole-2-sulfonimidamide]

Same assay, conditions: Table B2; 2% fetal bovine serum; class symbols; read-out: hTHP-1 IC50

pIC50	SMILES
4.52 to 5.30	CC(C)(O)c1sc(S(N)(=O)=NC(=O)Nc2c3c(nc4c2CCC4(C)C)CCC3)nc1CO (single isomer, unassigned) [Compound 642a, (S) or (R)-N′-((3,3-dimethyl-1,2,3,5,6,7-hexahydrodicyclopenta [b,e]pyridin-8-yl)carbamoyl)-4-(hydroxymethyl)-5-(2-hydroxypropan-2-yl)thiazole-2-sulfonimidamide]
6.00 to 6.70	COCc1nc(C(C)(C)O)sc1S(N)(=O)=NC(=O)Nc1c2c(nc3c1CCC3(C)C)CCC2 (single isomer, unassigned) [Compound 170a]
4.52 to 5.30	CC(C)c1c(C2CC2)nc2c(c1NC(=O)N=S(N)(=O)c1cc(C(C)(C)O)cs1)CCC2 (single isomer, unassigned) [Compound 667a, (S) or (R)-N′-((2-cyclopropyl-3-isopropyl-6,7-dihydro-5H-cyclopenta[b]pyridin-4-yl)carbamoyl)-4-(2-hydroxypropan-2-yl)thiophene-2-sulfonimidamide]
4.52 to 5.30	CC(C)(O)c1cc(Cl)c(S(N)(=O)=NC(=O)Nc2c3c(nc4c2CCC4)CCC3)s1 (single isomer, unassigned) [Compound 691a, (S) or (R)-3-Chloro-N′-((1,2,3,5,6,7-hexahydrodicyclopenta [b,e]pyridin-8-yl)carbamoyl)-5-(2-hydroxypropan-2-yl)thiophene-2-sulfonimidamide]
6.70 to 7.40	CC(C)(O)c1sc(S(N)(=O)=NC(=O)Nc2c3c(nc4c2CCC4(C)C)CCC3)nc1CO (single isomer, unassigned) [Compound 642b, (R) or (S)-N′-((3,3-dimethyl-1,2,3,5,6,7-hexahydrodicyclopenta [b,e]pyridin-8-yl)carbamoyl)-4-(hydroxymethyl)-5-(2-hydroxypropan-2-yl)thiazole-2-sulfonimidamide]

Same assay, conditions: Table B3; hTHP-1 assay, 2% fetal bovine serum; class symbols; read-out: IC50

pIC50	SMILES
5.30 to 6.00	NS(=O)(=NC(=O)Nc1c2c(nc(C3CC3)c1C1CC1)CCC2)c1ccn(C(F)F)n1 (single isomer, unassigned) [Example 695, (R) or (S)-N′-((2,3-dicyclopropyl-6,7-dihydro-5H-cyclopenta [b]pyridin-4-yl)carbamoyl)-1-(difluoromethyl)-1H-pyrazole-3-sulfonimidamide]
7.40 to 8.10	CCn1cc(F)c(S(N)(=O)=NC(=O)Nc2c3c(nc4c2CC[C@H]4C)CCC3)n1 (single isomer, unassigned) [Example 669, (R) or (S)-1-ethyl-4-fluoro-N′-(((R)-3-methyl-1,2,3,5,6,7-hexahydrodicyclopenta[b,e]pyridin-8-yl)carbamoyl)-1H-pyrazole-3-sulfonimidamide]

From patent publication US20230031406A1, “COMPOUNDS AND COMPOSITIONS FOR TREATING CONDITIONS ASSOCIATED WITH NLRP ACTIVITY” (Novartis AG, priority 2018, published 2023)
